According to patent US20250084178A1, “ANTI-CD39 ANTIBODIES AND USE THEREOF” (ARCUS BIOSCIENCES, INC., priority 2022, published 2025):

Tests used:
[1] = system: CT26 and MC38 cells; assay: Extracellular ATP release after oxaliplatin, murine colon carcinoma lines; format: cell-based; conditions: 250 μM oxaliplatin, 8 hours
Protocol: (§1) To evaluate cellular ATP release following oxaliplatin treatment, murine colon carcinoma cell lines CT26 and MC38 and human melanoma cell line SK-MEL-5 were defrosted, rinsed, and resuspended in their respective culture media. Culture media for CT26 and MC38 is RPMI+10% FBS+1% glutamax+1% penicillin-streptomycin+1% sodium pyruvate. Culture media for SK-MEL-5 is EMEM+10% FBS+1% glutamax+1% penicillin-streptomycin+1% sodium pyruvate. Cells were plated at 2.5×10^4 cells per well in a 96-well plate and incubated overnight at 37° C., 5% CO2. The following day, the cells were treated with the vehicle (PBS), 100 μM or 250 μM oxaliplatin. […] To determine cellular viability, the cells were incubated with treatments for 24 hours at 37° C., 5% CO2. At the end of the incubation period, viability was determined using luminescence-based Cell Titer Glo 2.0 assay (Promega, Cat. No. G9242). Data are presented as viability normalized to untreated vehicle controls (FIG. 19A). To determine HMGB1 release, the cells were incubated with treatment for 24 hours at 37° C., 5% CO2. At the end of the incubation period, the plates were centrifuged at 400×g for 5 minutes and supernatants were collected. HMGB1 levels in the culture supernatants were then determined using Lumit HMGB1 Kit (Promega, Cat. No. CS3030B01) following manufacturer's instructions (FIG. 19B). […]

[2] = system: SK-MEL-5 cells; assay: Extracellular ATP release after oxaliplatin, SK-MEL-5 cells; format: cell-based, human; conditions: 250 μM oxaliplatin, 8 hours
Protocol: as §1

Question: O=C1[O][Pt]2([NH][C@@H]3CCCC[C@H]3[NH]2)[O]C1=O [oxaliplatin, reference compound] was tested. Which “Extracellular ATP release” value [1] did it give?
Answer: demonstrated ATP release

Question: And the “Extracellular ATP release” value [2]?
Answer: demonstrated ATP release
